Measured values reported in PubChem BioAssay AID180 (DTP/NCI, 2004).
“And” between values parts separate entries of the source, which are not always exact repeats. Equal values may be shown once.

Tested on: BDF1 mice, Adenocarcinoma 755 s.c., tumor weight T/C
Assay: NCI In Vivo Anticancer Drug Screen. Data for tumor model Adenocarcinoma 755 (subcutaneous) in B6D2F1 (BDF1) mice
Conditions: endpoint: mean tumor weight, higher = larger tumour
In short: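 In vivo antitumor screen on a transplantable tumor line. Result equals the measure in compound-treated animals divided by the same measure in vehicle controls.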

[1] = dose: 50.0 mg/kg/injection, schedule: Q01DX011 (ip), vehicle: carboxymethylcellulose (CMC)
[2] = dose: 50.0 mg/kg/injection, schedule: Q01DX011 (ip), vehicle: methylcellulose (MC)
[3] = dose: 100.0 mg/kg/injection, schedule: Q01DX011 (ip), vehicle: carboxymethylcellulose (CMC)
[4] = dose: 100.0 mg/kg/injection, schedule: Q01DX011 (ip), vehicle: methylcellulose (MC)
[5] = dose: 200.0 mg/kg/injection, schedule: Q01DX011 (ip), vehicle: carboxymethylcellulose (CMC)
[6] = dose: 400.0 mg/kg/injection, schedule: Q01DX011 (ip), vehicle: methylcellulose (MC)
[7] = dose: 30.0 mg/kg/injection, schedule: Q01DX011 (ip), vehicle: carboxymethylcellulose (CMC)
[8] = dose: 60.0 mg/kg/injection, schedule: Q01DX011 (ip), vehicle: carboxymethylcellulose (CMC)
[9] = dose: 120.0 mg/kg/injection, schedule: Q01DX011 (ip), vehicle: carboxymethylcellulose (CMC)

Question: Which T/C (dose: 8.0 mg/kg/injection, schedule: Q01DX011 (sc), vehicle: steriod suspending solution) does the source give for `C[C@]12C=CC(=O)C=C1CC[C@@H]1[C@@H]2[C@@H](O)C[C@@]2(C)[C@H]1CC[C@]2(O)C(=O)CF` here?
Answer: 64 % of control

Question: And the T/C (dose: 16.0 mg/kg/injection, schedule: Q01DX011 (sc), vehicle: steriod suspending solution)?
Answer: 22 % of control

Question: What about the T/C (dose: 132.0 mg/kg/injection, schedule: Q01DX011 (sc), vehicle: steriod suspending solution) of the same compound?
Answer: 30 % of control

Question: What about the T/C (dose: 264.0 mg/kg/injection, schedule: Q01DX011 (sc), vehicle: steriod suspending solution) of the same compound?
Answer: 5 % of control

Question: Which results are given for `C=CC(=O)NCO`?
Answer: T/C (dose: 100.0 mg/kg/injection, schedule: Q01DX011 (ip), vehicle: other): 86 % of control; T/C (dose: 150.0 mg/kg/injection, schedule: Q01DX011 (ip), vehicle: other): 89 % of control; T/C (dose: 200.0 mg/kg/injection, schedule: Q01DX011 (ip), vehicle: other): 88 % of control

Question: `O=S=Nc1ccccc1` was tested. Which T/C (dose: 351.0 mg/kg/injection, schedule: Q01DX011 (ip), vehicle: carboxymethylcellulose (CMC)) did it give?
Answer: 64 % of control

Question: Which T/C (dose: 0.94 mg/kg/injection, schedule: Q01DX011 (ip), vehicle: carboxymethylcellulose (CMC)) does the source give for `Nc1ncnc2[nH]ncc12` here?
Answer: 78 % of control

Question: And the T/C (dose: 1.1 mg/kg/injection, schedule: Q01DX011 (ip), vehicle: carboxymethylcellulose (CMC))?
Answer: 69 % of control

Question: What about the T/C (dose: 1.41 mg/kg/injection, schedule: Q01DX011 (ip), vehicle: carboxymethylcellulose (CMC)) of the same compound?
Answer: 73 % of control

Question: What about the T/C (dose: 1.5 mg/kg/injection, schedule: Q01DX011 (ip), vehicle: carboxymethylcellulose (CMC)) of the same compound?
Answer: 67 % of control

Question: What about the T/C (dose: 1.88 mg/kg/injection, schedule: Q01DX011 (ip), vehicle: carboxymethylcellulose (CMC)) of the same compound?
Answer: 54 % of control and 61 % of control

Question: What about the T/C (dose: 2.5 mg/kg/injection, schedule: Q01DX011 (ip), vehicle: carboxymethylcellulose (CMC)) of the same compound?
Answer: 32 % of control

Question: What about the T/C (dose: 3.1 mg/kg/injection, schedule: Q01DX011 (ip), vehicle: carboxymethylcellulose (CMC)) of the same compound?
Answer: 74 % of control

Question: What about the T/C (dose: 3.75 mg/kg/injection, schedule: Q01DX011 (ip), vehicle: carboxymethylcellulose (CMC)) of the same compound?
Answer: 31 % of control and 36 % of control

Question: What about the T/C (dose: 4.52 mg/kg/injection, schedule: Q01DX011 (ip), vehicle: carboxymethylcellulose (CMC)) of the same compound?
Answer: 108 % of control

Question: And the T/C (dose: 5.65 mg/kg/injection, schedule: Q01DX011 (ip), vehicle: carboxymethylcellulose (CMC))?
Answer: 50 % of control and 63 % of control

Question: And the T/C (dose: 6.2 mg/kg/injection, schedule: Q01DX011 (ip), vehicle: carboxymethylcellulose (CMC))?
Answer: 6 % of control

Question: And the T/C (dose: 7.5 mg/kg/injection, schedule: Q01DX011 (ip), vehicle: carboxymethylcellulose (CMC))?
Answer: 5 % of control and 6 % of control

Question: What about the T/C (dose: 7.53 mg/kg/injection, schedule: Q01DX011 (ip), vehicle: carboxymethylcellulose (CMC)) of the same compound?
Answer: 36 % of control

Question: What about the T/C (dose: 11.3 mg/kg/injection, schedule: Q01DX011 (ip), vehicle: carboxymethylcellulose (CMC)) of the same compound?
Answer: 31 % of control

Question: For `CCCCNc1nc(N)nc(Nc2ccc(Br)cc2)c1N=O`, which T/C [1] is on record?
Answer: 18 % of control

Question: What about the T/C [2] of the same compound?
Answer: 46 % of control

Question: And the T/C [3]?
Answer: 30 % of control

Question: What about the T/C [4] of the same compound?
Answer: 44 % of control

Question: What about the T/C [5] of the same compound?
Answer: 53 % of control

Question: What about the T/C (dose: 200.0 mg/kg/injection, schedule: Q01DX011 (ip), vehicle: methylcellulose (MC)) of the same compound?
Answer: 40 % of control

Question: What about the T/C [6] of the same compound?
Answer: 47 % of control

Question: And the T/C (dose: 800.0 mg/kg/injection, schedule: Q01DX011 (ip), vehicle: carboxymethylcellulose (CMC))?
Answer: 23 % of control

Question: How did the T/C (dose: 23.7 mg/kg/injection, schedule: Q01DX011 (ip), vehicle: carboxymethylcellulose (CMC)) turn out when `CC(C)C(Sc1nc(N)nc2nc[nH]c12)C(=O)O` (configuration not stated) was run?
Answer: 113 % of control

Question: And the T/C (dose: 47.5 mg/kg/injection, schedule: Q01DX011 (ip), vehicle: carboxymethylcellulose (CMC))?
Answer: 81 % of control

Question: And the T/C (dose: 95.0 mg/kg/injection, schedule: Q01DX011 (ip), vehicle: carboxymethylcellulose (CMC))?
Answer: 83 % of control

Question: And the T/C (dose: 190.0 mg/kg/injection, schedule: Q01DX011 (ip), vehicle: carboxymethylcellulose (CMC))?
Answer: 64 % of control

Question: What does the source list for `O=C(O)CCC(=O)NO`?
Answer: T/C [1]: 96 % of control; T/C [3]: 98 % of control; T/C [5]: 84 % of control

Question: Which T/C [7] does the source give for `CC(=O)OCC1OC(n2c(Br)nc3c(=O)[nH]c(N)nc32)C(OC(C)=O)C1OC(C)=O` (configuration not stated) here?
Answer: 95 % of control

Question: And the T/C [8]?
Answer: 119 % of control

Question: And the T/C [9]?
Answer: 90 % of control

Question: And the T/C (dose: 240.0 mg/kg/injection, schedule: Q01DX011 (ip), vehicle: carboxymethylcellulose (CMC))?
Answer: 82 % of control

Question: What does the source list for `O=C(CCCl)N1CCN(C(=O)CCCl)CC1`?
Answer: T/C (dose: 11.25 mg/kg/injection, schedule: Q01DX011 (ip), vehicle: methylcellulose (MC)): 64 % of control; T/C (dose: 22.5 mg/kg/injection, schedule: Q01DX011 (ip), vehicle: methylcellulose (MC)): 66 % of control; T/C (dose: 44.0 mg/kg/injection, schedule: Q01DX011 (ip), vehicle: saline): 86 % of control; T/C (dose: 45.0 mg/kg/injection, schedule: Q01DX011 (ip), vehicle: methylcellulose (MC)): 80 % of control; T/C (dose: 87.5 mg/kg/injection, schedule: Q01DX011 (ip), vehicle: saline): 63 % of control; T/C (dose: 90.0 mg/kg/injection, schedule: Q01DX011 (ip), vehicle: methylcellulose (MC)): 56 % of control; T/C (dose: 175.0 mg/kg/injection, schedule: Q01DX011 (ip), vehicle: methylcellulose (MC)): 26 % of control and 33 % of control and 50 % of control; T/C (dose: 175.0 mg/kg/injection, schedule: Q01DX011 (ip), vehicle: saline): 70 % of control; T/C (dose: 263.0 mg/kg/injection, schedule: Q01DX011 (ip), vehicle: saline): 40 % of control

Question: `CC1(C)O[C@@H]2C[C@H]3[C@@H]4CCC5=CC(=O)CC[C@]5(C)[C@@]4(F)[C@@H](O)C[C@]3(C)[C@]2(C(=O)CO)O1` was tested. Which T/C (dose: 0.3 mg/kg/injection, schedule: Q01DX011 (sc), vehicle: steriod suspending solution) did it give?
Answer: 60 % of control

Question: And the T/C (dose: 0.7 mg/kg/injection, schedule: Q01DX011 (sc), vehicle: steriod suspending solution)?
Answer: 42 % of control

Question: What about the T/C (dose: 0.75 mg/kg/injection, schedule: Q01DX011 (sc), vehicle: steriod suspending solution) of the same compound?
Answer: 82 % of control

Question: And the T/C (dose: 6.0 mg/kg/injection, schedule: Q01DX011 (sc), vehicle: steriod suspending solution)?
Answer: 36 % of control

Question: And the T/C (dose: 6.25 mg/kg/injection, schedule: Q01DX011 (sc), vehicle: steriod suspending solution)?
Answer: 41 % of control

Question: What about the T/C (dose: 12.0 mg/kg/injection, schedule: Q01DX011 (sc), vehicle: steriod suspending solution) of the same compound?
Answer: 16 % of control

Question: And the T/C (dose: 12.5 mg/kg/injection, schedule: Q01DX011 (sc), vehicle: steriod suspending solution)?
Answer: 31 % of control

Question: What about the T/C (dose: 24.0 mg/kg/injection, schedule: Q01DX011 (sc), vehicle: steriod suspending solution) of the same compound?
Answer: 8 % of control (2×) and 14 % of control

Question: What about the T/C (dose: 25.0 mg/kg/injection, schedule: Q01DX011 (sc), vehicle: steriod suspending solution) of the same compound?
Answer: 20 % of control

Question: What about the T/C (dose: 48.0 mg/kg/injection, schedule: Q01DX011 (sc), vehicle: steriod suspending solution) of the same compound?
Answer: 8 % of control

Question: `O=C(CCBr)NCCCCCNC(=O)CCBr` was tested. Which T/C (dose: 56.0 mg/kg/injection, schedule: Q01DX011 (ip), vehicle: methylcellulose (MC)) did it give?
Answer: 86 % of control

Question: And the T/C (dose: 113.0 mg/kg/injection, schedule: Q01DX011 (ip), vehicle: methylcellulose (MC))?
Answer: 71 % of control

Question: And the T/C (dose: 225.0 mg/kg/injection, schedule: Q01DX011 (ip), vehicle: methylcellulose (MC))?
Answer: 78 % of control

Question: What about the T/C (dose: 450.0 mg/kg/injection, schedule: Q01DX011 (ip), vehicle: methylcellulose (MC)) of the same compound?
Answer: 47 % of control

Question: What does the source list for `Cn1c(=O)c2[nH]c(N/N=C/c3ccc(F)cc3)nc2n(C)c1=O`?
Answer: T/C [7]: 93 % of control; T/C [8]: 91 % of control; T/C [9]: 114 % of control

Question: Which results are given for `CCCCn1cnc2c(SCc3ccc(Br)cc3)nc(N)nc21`?
Answer: T/C (dose: 12.5 mg/kg/injection, schedule: Q01DX011 (ip), vehicle: methylcellulose (MC)): 47 % of control; T/C (dose: 25.0 mg/kg/injection, schedule: Q01DX011 (ip), vehicle: methylcellulose (MC)): 66 % of control; T/C [2]: 82 % of control; T/C [4]: 49 % of control

Question: Which results are given for `CCOc1ccc2nc(S(N)(=O)=O)sc2c1`?
Answer: T/C [2]: 60 % of control; T/C [3]: 23 % of control and 30 % of control; T/C [4]: 89 % of control; T/C [5]: 13 % of control; T/C [6]: 19 % of control

Question: How did the T/C [7] turn out when `COc1cc(/C=N/Nc2nc3c([nH]2)c(=O)n(C)c(=O)n3C)ccc1O` was run?
Answer: 91 % of control

Question: What about the T/C [9] of the same compound?
Answer: 119 % of control

Question: Which results are given for `N#[N+]c1cn(C2CC(O)C(CO)O2)c(=O)[nH]c1=O` (configuration not stated)?
Answer: T/C (dose: 30.0 mg/kg/injection, schedule: Q01DX011 (ip), vehicle: saline): 106 % of control; T/C (dose: 60.0 mg/kg/injection, schedule: Q01DX011 (ip), vehicle: saline): 118 % of control; T/C (dose: 120.0 mg/kg/injection, schedule: Q01DX011 (ip), vehicle: saline): 94 % of control; T/C (dose: 240.0 mg/kg/injection, schedule: Q01DX011 (ip), vehicle: saline): 47 % of control
